Measured values as given in ChEMBL document CHEMBL3612042 (J Med Chem, 2015).
pKd: −log10 of the molar value. In brackets after ≈: the same amount, converted by molar mass.

Tests used:
[1] = tested on: Mycobacterium tuberculosis; assay: Antibacterial activity against Mycobacterium tuberculosis XDR1 measured at 7 to 14 days by broth microdilution method; type: functional
[2] = tested on: Mycobacterium tuberculosis; assay: Antibacterial activity against Mycobacterium tuberculosis XDR2 measured at 7 to 14 days by broth microdilution method; type: functional
[3] = tested on: Mycobacterium tuberculosis; assay: Antibacterial activity against Mycobacterium tuberculosis MDR1 measured at 7 to 14 days by broth microdilution method; type: functional
[4] = tested on: Mycobacterium tuberculosis; assay: Antibacterial activity against Mycobacterium tuberculosis MDR2 measured at 7 to 14 days by broth microdilution method; type: functional
[5] = tested on: Mycobacterium tuberculosis; assay: Antibacterial activity against Mycobacterium tuberculosis MDR3 measured at 7 to 14 days by broth microdilution method; type: functional
[6] = tested on: Mycobacterium tuberculosis; assay: Antibacterial activity against Mycobacterium tuberculosis MDR4 measured at 7 to 14 days by broth microdilution method; type: functional
[7] = tested on: Mycobacterium tuberculosis; assay: Antibacterial activity against Mycobacterium tuberculosis MDR5 measured at 7 to 14 days by broth microdilution method; type: functional
[8] = tested on: Mycobacterium tuberculosis; assay: Antibacterial activity against Mycobacterium tuberculosis MDR6 measured at 7 to 14 days by broth microdilution method; type: functional
[9] = tested on: Mycobacterium tuberculosis; assay: Antibacterial activity against Mycobacterium tuberculosis MDR7 measured at 7 to 14 days by broth microdilution method; type: functional
[10] = tested on: Mycobacterium tuberculosis; assay: Antibacterial activity against Mycobacterium tuberculosis MDR8 measured at 7 to 14 days by broth microdilution method; type: functional
[11] = tested on: Mycobacterium tuberculosis; assay: Antibacterial activity against Mycobacterium tuberculosis H37Rv measured at 10 to 14 days by broth microdilution method; type: functional
[12] = target: T1, Biotin--[acetyl-CoA-carboxylase] ligase (Mycobacterium tuberculosis (strain ATCC 25618 / H37Rv), UniProt I6YFP0)
T1 sequence (I6YFP0 whole entry): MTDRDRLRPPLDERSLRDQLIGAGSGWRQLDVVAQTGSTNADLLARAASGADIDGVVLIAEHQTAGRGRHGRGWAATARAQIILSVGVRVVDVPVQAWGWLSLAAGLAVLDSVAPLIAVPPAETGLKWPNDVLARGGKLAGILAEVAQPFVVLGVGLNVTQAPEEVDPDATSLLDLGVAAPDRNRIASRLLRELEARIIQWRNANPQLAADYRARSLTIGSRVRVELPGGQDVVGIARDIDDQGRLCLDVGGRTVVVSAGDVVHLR

[13] = tested on: Mycobacterium tuberculosis H37Rv; assay: Drug uptake in Mycobacterium tuberculosis H37Rv at 25 uM after 24 hrs by LC-MS/MS analysis; type: ADME, organism-based

SMILES | MIC90 [11] [µM] | pKd [12] | other results
Nc1ncnc2c1ncn2[C@@H]1O[C@H](CNS(=O)(=O)NC(=O)CCCC[C@@H]2SC[C@@H]3NC(=O)N[C@@H]32)[C@@H](O)[C@H]1O | – | – | MIC99 [1]: 0.16 µM (≈ 0.0915 µg/mL); MIC99 [2]: 0.16 µM (≈ 0.0915 µg/mL); MIC99 [3]: 0.16 µM (≈ 0.0915 µg/mL); MIC99 [4]: 0.16 µM (≈ 0.0915 µg/mL); MIC99 [5]: 0.16 µM (≈ 0.0915 µg/mL); MIC99 [6]: 0.16 µM (≈ 0.0915 µg/mL); MIC99 [7]: 0.16 µM (≈ 0.0915 µg/mL); MIC99 [8]: 0.16 µM (≈ 0.0915 µg/mL); MIC99 [9]: 0.16 µM (≈ 0.0915 µg/mL); MIC99 [10]: 0.16 µM (≈ 0.0915 µg/mL)
Nc1ncnc2c1ncn2[C@H]1C=C[C@@H](CNS(=O)(=O)NC(=O)CCCC[C@@H]2SC[C@@H]3NC(=O)N[C@@H]32)C1 | 3.12 (≈ 1.67 µg/mL) | 8.67 | –
Nc1ncnc2c1ncn2[C@@H]1O[C@H](CNS(=O)(=O)NC(=O)CCCC[C@@H]2SC[C@@H]3NC(=O)N[C@@H]32)C[C@H]1O | 0.78 (≈ 0.433 µg/mL) | 9.23 | –
Nc1ncnc2c1ncn2[C@@H]1C[C@H](CNS(=O)(=O)NC(=O)CCCC[C@@H]2SC[C@@H]3NC(=O)N[C@@H]32)[C@@H](O)[C@H]1O | > 100 | 9.12 | –
CCN(CC)CC.Nc1ncnc2c1ncn2[C@@H]1O[C@H](CNS(=O)(=O)NC(=O)CCCC[C@@H]2SC[C@@H]3NC(=O)N[C@@H]32)[C@@H](O)[C@H]1F | 1.25 | 9.21 | Drug uptake [13]: Active
Nc1ncnc2c1ncn2[C@H]1CC[C@@H](CNS(=O)(=O)NC(=O)CCCC[C@@H]2SC[C@@H]3NC(=O)N[C@@H]32)C1 | 1.56 (≈ 0.839 µg/mL) | 9.27 | –
CCN(CC)CC.Nc1ncnc2c1ncn2[C@@H]1O[C@H](COS(=O)(=O)NC(=O)CCCC[C@@H]2SC[C@@H]3NC(=O)N[C@@H]32)[C@@H](O)[C@@H]1F | 50 | 9.82 | Drug uptake [13]: Active
[N-]=[N+]=N[C@@H]1[C@H](O)[C@@H](CNS(=O)(=O)NC(=O)CCCC[C@@H]2SC[C@@H]3NC(=O)N[C@@H]32)O[C@H]1n1cnc2c(N)ncnc21 | 3.12 (≈ 1.86 µg/mL) | 9.03 | –
C[C@@]1(O)[C@H](O)[C@@H](COS(=O)(=O)NC(=O)CCCC[C@@H]2SC[C@@H]3NC(=O)N[C@@H]32)O[C@H]1n1cnc2c(N)ncnc21 | 50 (≈ 29.3 µg/mL) | 9.11 | –
Nc1ncnc2c1ncn2[C@@H]1O[C@H](CNS(=O)(=O)NC(=O)CCCC[C@@H]2SC[C@@H]3NC(=O)N[C@@H]32)[C@@H](O)[C@H]1N | 1.25 (≈ 0.713 µg/mL) | 9.20 | –
Nc1ncnc2c1ncn2[C@H]1CNC[C@@H](COS(=O)(=O)NC(=O)CCCC[C@@H]2SC[C@@H]3NC(=O)N[C@@H]32)O1 | 3.12 (≈ 1.73 µg/mL) | 9.49 | –
